Columns and labels:
Mus musculus [1] = assay: The compound was tested for inhibition of lung eosinophilia in mouse at 30 mg/kg/day, po; format: functional
[2] = The compound was tested for tmax value pharmacokinetic parameter in the male Sprague-Dawley rat.; format: ADME, organism-based; settings: in vivo
[3] = The compound was tested for terminal half-life pharmacokinetic parameter in the male Sprague-Dawley rat.; format: ADME, organism-based; settings: in vivo
Mus musculus [4] = organism: Mus musculus; assay: The compound was evaluated for increase in neurological status at 1 hr post head injury using a simple grip test in mouse.; format: functional
[5] = Oral bioavailability in rat (Sprague-Dawley) (male); format: ADME, organism-based; settings: in vivo
Mus musculus [6] = assay: The compound was tested for inhibition of lung eosinophilia in mouse at 3 mg/kg/day, po; format: functional
[7] = The compound was tested for cytoprotective effect against the human astroglial cells.; format: functional, cell-based
Rattus norvegicus [8] = assay: The compound was tested for inhibition of lung eosinophilia in rat at 30mg/kg/day, po; format: functional
[9] = The compound was tested for steady state volume of distribution pharmacokinetic parameter in the male Sprague-Dawley rat.; format: ADME, organism-based; settings: in vivo
Rattus norvegicus [10] = organism: Rattus norvegicus; assay: The compound was tested for inhibition of [Fe2+]-induced MDA formation in rat brain homogenate.; format: functional
Mus musculus [11] = assay: The compound was tested for inhibition of lung eosinophilia in mouse at 10 mg/kg/day, po; format: functional
Rattus norvegicus [12] = assay: The compound was tested for inhibition of lung eosinophilia in rat at 3 mg/kg/day, po; format: functional
[13] = The compound was tested for Cmax value pharmacokinetic parameter in the male Sprague-Dawley rat.; format: ADME, organism-based; settings: in vivo
Mus musculus [14] = organism: Mus musculus; assay: The compound was tested for spinal neuroprotection in mouse.; format: functional, organism-based
[15] = The compound was tested for systemic clearance pharmacokinetic parameter in the male Sprague-Dawley rat.; format: ADME, organism-based; settings: in vivo
Rattus norvegicus [16] = assay: The compound was tested for inhibition of lung eosinophilia in rat at 3mg/kg/day, po; format: functional
Rattus norvegicus [17] = assay: The compound was tested for inhibition of lung eosinophilia in rat at 30 mg/kg/day, po; format: functional
Rattus norvegicus [18] = assay: The compound was tested for inhibition of lung eosinophilia in rat at 10 mg/kg/day, po; format: functional

Row | SMILES | Tmax [2] | half-life [3] | bioavailability [5] | EC50 [7] | Vd [9] | IC50 (Rattus norvegicus [10]) | Cmax [13] | IC50 (Mus musculus [14]) | clearance [15] | inhibition in vivo at 30 mg/kg/day (Mus musculus [1]) | Score (Mus musculus [4]) | inhibition in vivo at 3 mg/kg/day (Mus musculus [6]) | inhibition in vivo at 30 mg/kg/day (Rattus norvegicus [8]) | inhibition in vivo at 10 mg/kg/day (Mus musculus [11]) | inhibition in vivo at 3 mg/kg/day (Rattus norvegicus [12]) | inhibition in vivo at 3 mg/kg/day (Rattus norvegicus [16]) | inhibition in vivo at 30 mg/kg/day (Rattus norvegicus [17]) | inhibition in vivo at 10 mg/kg/day (Rattus norvegicus [18])
1 | COc1ccc(-c2cc3c(N4CCCC4)nc(N4CCCC4)nc3n2C)cc1 | 4 h | 24.3 h | 59.8% | 400 nM | 42.8 L/kg | 1000 nM | 600 ng/mL | 3400 nM | 20.7 mL/min/kg |  | 73% |  |  |  |  |  |  | 
2 | c1ccc2c(c1)c1c(N3CCCC3)nc(N3CCCC3)nc1n2CCN1CCOCC1 | 2 h | 15.7 h | 69.9% | 3000 nM | 1.92 L/kg |  | 14700 ng/mL | 10600 nM | 2 mL/min/kg | 71% |  | 53% | 85% | 62% |  |  |  | 87%
3 | Cn1c(-c2ccccc2)cc2c(N3CCCC3)nc(N3CCCC3)nc21 | 4 h | 22.1 h | 55.9% | 900 nM | 44 L/kg | 5000 nM | 1420 ng/mL | 1300 nM | 23.7 mL/min/kg |  | 104% |  |  |  |  |  |  | 

Continued, in another order:

Row | Tmax [2] | half-life [3] | bioavailability [5] | EC50 [7] | Vd [9] | IC50 (Rattus norvegicus [10]) | Cmax [13] | IC50 (Mus musculus [14]) | clearance [15] | SMILES | inhibition in vivo at 30 mg/kg/day (Mus musculus [1]) | Score (Mus musculus [4]) | inhibition in vivo at 3 mg/kg/day (Mus musculus [6]) | inhibition in vivo at 30 mg/kg/day (Rattus norvegicus [8]) | inhibition in vivo at 10 mg/kg/day (Mus musculus [11]) | inhibition in vivo at 3 mg/kg/day (Rattus norvegicus [12]) | inhibition in vivo at 3 mg/kg/day (Rattus norvegicus [16]) | inhibition in vivo at 30 mg/kg/day (Rattus norvegicus [17]) | inhibition in vivo at 10 mg/kg/day (Rattus norvegicus [18])
4 | 2 h | 8.9 h | 70.2% | 200 nM | 1.09 L/kg | 2000 nM | 40300 ng/mL | 340 nM | 1.67 mL/min/kg | Cn1c2c(c3c(N4CCCC4)nc(N4CCCC4)nc31)CCCC2 | 41% | 276% | 0% | 47% | 31% | 72% |  |  | 
5 | 4 h | 10.9 h | 84.6% | 200 nM | 39.7 L/kg | 1000 nM | 5710 ng/mL | 7000 nM | 8.83 mL/min/kg | Cc1cc2c(N3CCCC3)nc(N3CCCC3)nc2n1C | 0% | 100% | 0% |  | 0% |  | 0% | 28% | 27%
6 | 8 h | 6.1 h | 31.4% | 200 nM | 66.2 L/kg | 1000 nM | 720 ng/mL | 130 nM | 38.8 mL/min/kg | Cn1c(-c2ccc(O)cc2)cc2c(N3CCCC3)nc(N3CCCC3)nc21 |  | 138% |  |  |  |  |  |  | 
7 | 2 h | 11.2 h | 78.3% | 300 nM | 0.94 L/kg |  | 19400 ng/mL | 1100 nM | 0.967 mL/min/kg | C1CCc2c(c3c(N4CCCC4)nc(N4CCCC4)nc3n2CCN2CCOCC2)C1 | 72% | 163% | 37% | 62% | 56% | 13% |  |  | 30%

From ChEMBL document CHEMBL1128318, “Synthesis of novel 2,4-diaminopyrrolo-[2,3-d]pyrimidines with antioxidant, neuroprotective, and antiasthma activity” (J Med Chem, 1995)
